Test results reported in PubChem BioAssay AID1869 (NMMLSC, 2009).
Active and inactive are the calls of the source. The rule behind the calls is not given here.

molecular target: Regulator of G-protein signaling 8 (Homo sapiens) (UniProt P57771); assay: compounds altering Galphao binding to RGS8 – biochemical, multiplex bead flow cytometry, dose response (AID 1869); details: bead-based flow cytometry RGS8-Galphao binding
Sequence (P57771 whole entry, looked up): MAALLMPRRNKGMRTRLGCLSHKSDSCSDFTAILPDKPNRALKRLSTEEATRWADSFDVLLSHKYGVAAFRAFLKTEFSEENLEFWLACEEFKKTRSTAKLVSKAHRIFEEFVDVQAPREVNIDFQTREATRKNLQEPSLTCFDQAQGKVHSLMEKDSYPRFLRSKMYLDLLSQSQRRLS

Compound | EC50
NS(=O)(=O)c1ccc(N/N=C/c2ccc(O)c(O)c2O)c([N+](=O)[O-])c1 | 1.69 µM
O=c1[nH]c(=S)n(Cc2ccco2)c(O)c1C=NCc1cccs1 | > 30 µM (inactive)
CCOC(=O)N=Nc1c(O)n(C)c2ccccc12 | > 30 µM (inactive)
O=C1CCCC2=C1C(c1cccs1)n1ncnc1N2 (stereo not drawn) | > 30 µM (inactive)
COc1ccc(Br)cc1/C=N/Nc1cccc(C(=O)O)c1 | > 30 µM (inactive)
CC(C)Sc1nc2ccc(N3C(=O)C4CCCCC4C3=O)cc2s1 (stereo not drawn) | > 30 µM (inactive)
CCOC(=O)C1=C(C)NC(C)=C(C(=O)OCCNC(=O)c2cccnc2)C1c1cccc([N+](=O)[O-])c1 (stereo not drawn) | > 30 µM (inactive)
CN(C)[C@@H]1C(=O)C(C(=O)NCN2CCCC2)=C(O)[C@@]2(O)C(=O)C3=C(O)c4c(O)cccc4[C@@](C)(O)C3CC12 (stereo partly drawn) | 7.06 µM
CCOC(=O)/C(C(=O)Nc1ccccc1Cl)=C1/NC(C)(C)Cc2ccccc21 | > 30 µM (inactive)

same assay, conditions: bead-based flow cytometry RGS8-Galphao binding; measured here: Ki for RGS8-Galphao binding

Compound | Ki
CC1(C)OC(=O)C(=Cc2ccc(-c3ccc(S(N)(=O)=O)cc3)o2)C(=O)O1 | 3.98 µM
Cc1ccc(NC(=O)Cn2sc3nc(C)cc(C)c3c2=O)c(Cl)c1 | 11.7 µM
Nc1cccnc1Sc1ccc([N+](=O)[O-])cn1 | 13.7 µM
O=C(OCC1O[C@@H](OC(=O)c2cc(O)c(O)c(O)c2)[C@@H](OC(=O)c2cc(O)c(O)c(O)c2)[C@@H](OC(=O)c2cc(O)c(O)c(O)c2)[C@@H]1OC(=O)c1cc(O)c(O)c(O)c1)c1cc(O)c(O)c(O)c1 (stereo partly drawn) | 1.05 µM
O=C(Cc1csc(N2CCOCC2)n1)N/N=C/c1ccc(O)c(O)c1O | 13.8 µM
Cc1cccc(N2CCN(C(=O)Cn3sc4nc(C)cc(C)c4c3=O)CC2C)c1 (stereo not drawn) | 12.8 µM
O=C1CCC(=O)N(O)CCCCCNC(=O)CCC(=O)N(O)CCCCCNC(=O)CCC(=O)N(O)CCCCCN1 | 1.7 µM
CCN(CC)S(=O)(=O)c1cccc(C(=O)N/N=C/c2ccc(O)c(O)c2O)c1 | 3.77 µM
CCC(=O)NC(c1ccc(C)cc1)c1cc([N+](=O)[O-])c2cccnc2c1O (stereo not drawn) | 13.7 µM
CCN1/C(=C/C(C)=C/c2sc3ccccc3[n+]2CC)Sc2ccccc21 | 7.38 µM
O=c1c2ccccc2sn1-c1cc(S(=O)(=O)N2CCOCC2)ccc1N1CCCC1 | 3.05 µM
NS(=O)(=O)c1ccc(N/N=C/c2ccc(O)c(O)c2O)c([N+](=O)[O-])c1 | 1.4 µM
CN(C)S(=O)(=O)c1cccc(-n2sc3ccccc3c2=O)c1 | 3.31 µM
Cc1[nH]n(-c2ccccc2)c(=S)c1C=Nc1cccc([N+](=O)[O-])c1 | 1.65 µM
CCC(=O)NC1=C(Cl)C(=O)C(NC(=O)CC)=C(Cl)C1=O | 2.83 µM
Cc1ccc(-n2sc3ccccc3c2=O)cc1S(=O)(=O)N1CCCCC1 | 9.95 µM
O=c1c2ccccc2sn1-c1ccc(S(=O)(=O)N2CCCC2)cc1 | 8.61 µM
COc1ccc(C2=CC(=O)C=CC2=O)cc1 | 6.01 µM
COCCCNC(=O)c1ccc2c3c(onc13)-c1ccccc1C2=O | 3.52 µM
Nc1c(C(=O)NCC2CCCO2)sc2nc3c(c(-c4ccco4)c12)CC/C3=C\c1ccco1 (stereo not drawn) | 6.07 µM
COc1ccccc1-n1c(-c2cc(-c3ccco3)[nH]n2)n[nH]c1=S | 6.97 µM
O=C1OCC2OC(O)C(O)C(O)C2OC(=O)c2cc(O)c(O)c(O)c2-c2c(O)c(O)c3oc(=O)c4c(c(O)c(O)c5oc(=O)c2c3c54)-c2c1cc(O)c(O)c2O (stereo not drawn) | 0.5 µM
Cc1cc(Cl)ccc1N=c1ssnc1Cl | 11.9 µM
O=c1c2ccccc2sn1-c1cc(S(=O)(=O)N2CCOCC2)ccc1N1CCOCC1 | 4.21 µM
O=c1c2ccccc2sn1-c1ccccc1 | 5.06 µM

Compound | Ki
COc1ccc(OC)c(CCNC(=O)Cn2sc3nc(C)cc(C)c3c2=O)c1 | 3.85 µM
COC(=O)CCC(=O)Nc1sc(C)c(C)c1C(N)=O | 4.93 µM
CC(NC(=O)c1sc2cc([N+](=O)[O-])ccc2c1Cl)C(C)(C)C (stereo not drawn) | 1.63 µM
CCOC(=O)c1sc(NC(=O)CSc2nnc(Cc3ccccc3)o2)c(C#N)c1C | 5.55 µM
O=C(COc1ccccc1C(=O)N/N=C\c1ccc(O)c(O)c1)N/N=C/c1ccc(O)c(O)c1 | 2.49 µM
CCOC(=O)C1CCCN(C(=O)Cn2sc3nc(C)cc(C)c3c2=O)C1 (stereo not drawn) | 4.49 µM
CCN1/C(=C/C=C/C=C/c2sc3ccccc3[n+]2CC)Sc2ccccc21 | 4.71 µM
Cc1cc(C)c2c(=O)n(CC(=O)Nc3cccc(F)c3)sc2n1 | 6.53 µM
O=C1C(Cl)=C(N2CCCCC2)C(=O)C(Cl)=C1c1cnc(N2CCCCC2)s1 | 0.95 µM
CN(C)c1ncc(C2=C(Cl)C(=O)C(N3CCCC3)=C(Cl)C2=O)s1 | 1.11 µM
O=C(O)C[C@@H]1C(=O)O[C@@H]2C(COC(=O)c3cc(O)c(O)c(O)c3)O[C@@H](OC(=O)c3cc(O)c(O)c(O)c3)[C@@H](OC(=O)c3cc(O)c(O)c4c3[C@H]1[C@H](O)C(=O)O4)[C@H]2OC(=O)c1cc(O)c(O)c(O)c1 (stereo partly drawn) | 0.68 µM
CCN=c1scc(C)n1/N=C/c1ccc(O)c(O)c1O | 19.6 µM
CN(C)[C@@H]1C(=O)C(C(=O)NCN2CCCC2)=C(O)[C@@]2(O)C(=O)C3=C(O)c4c(O)cccc4[C@@](C)(O)C3CC12 (stereo partly drawn) | 5.85 µM
O=C(O[C@@H]1OC2COC(=O)c3cc(O)c(O)c(O)c3-c3c(cc(O)c(O)c3O)C(=O)O[C@@H]([C@H]1O)[C@@H]2O)c1cc(O)c(O)c(O)c1 | 1.45 µM
CC(=O)N(O)CCCCCNC(=O)CCC(=O)N(O)CCCCCNC(=O)CCC(=O)N(O)CCCCCN | 1.89 µM
CN1CCN(C2=C(Cl)C(=O)C(c3cnc(N4CCCCC4)s3)=C(Cl)C2=O)CC1 | 0.11 µM
CN=c1scc(C)n1/N=C/c1ccc(O)c(O)c1O | 7.21 µM
Cc1cc(C)c2c(=O)n(CC(=O)Nc3ccc(Cl)cc3)sc2n1 | 5.27 µM
CCc1c(C(=O)Nc2ccccc2)c(C)[nH]c(=S)c1C#N | 7.87 µM
CCNc1ccc2noc3c2c1C(=O)c1ccccc1-3 | 20.3 µM
O=C(NCCCN1CCOCC1)c1sc2cc([N+](=O)[O-])ccc2c1Cl | 2.16 µM
Cc1[nH]n(-c2ccccc2)c(=S)c1C=NCCCN=Cc1c(C)[nH]n(-c2ccccc2)c1=S | 4.25 µM
Cc1ccccc1-n1sc2cc(F)ccc2c1=O | 9.64 µM
O=[N+]([O-])c1ccc(Sc2cccc[n+]2[O-])c2nonc12 | 2.54 µM
